Experimental data from patent publication US7163923B2, “Peptide deformylase activated prodrugs” (Celmed Oncology (USA), Inc., priority 2001, dated 2007).
Converted amounts (≈) assume the structure as drawn.

Key:
[1] = Stability in PBS, HEPES buffer and Mueller Hinton broth; assay type: physicochemical
Experimental: (§1) Stability of PDF ECTA compounds was determined in different media: PBS, pH 7.4 (Gibco Life Technologies), 50 mM HEPES buffer (Sigma), pH 7.5, Mueller Hinton broth (Becton Dickinson), mouse and human plasma (Sigma). Dependence of a compound concentration on time was fit to an exponential equation c=co×exp(−k×t)} where c is the running concentration of the compound, co is its initial concentration and t is time. The compound half-life was determined as t1/2=0.693/k.

[2] = Stability in mouse plasma; assay type: in vitro ADME
Experimental: as §1

[3] = Stability in human plasma; assay type: in vitro ADME
Experimental: as §1

E. coli = test: MIC susceptibility testing (NCCLS, 96-well); assay type: cell-based; conditions: E. coli ATCC 25922, 18 hours at 35° C.
Experimental: (§2) The NCCLS (National Committee for Clinical Laboratory Standards) method was used to determine MIC's of antimicrobial compounds. All stocks of tested compounds were prepared in either water or DMSO based on the solubility. At the highest concentration of the tested compound DMSO content should not exceed 0.5%. Briefly 2-fold serial dilutions of test compounds from the highest concentration were made in a 96-well microtiter plate. Each well was inoculated with testing bacteria in broth to a final concentration of approximately 5×10^5 CFU/ml. Bacterial growth was monitored by the increase of optical density at 600 nm using a microplate reader (Tecan SpectraFluor Plus). The MIC was defined as the lowest concentration at which bacteria growth (equivalent to visible growth) was inhibited after 18 hours of incubation at 35° C.

E. faecalis = test: MIC susceptibility testing (NCCLS, 96-well); assay type: cell-based; conditions: E. faecalis ATCC 29212, 18 hours at 35° C.
Experimental: as §2

P. aeruginosa = test: MIC susceptibility testing (NCCLS, 96-well); assay type: cell-based; conditions: P. aeruginosa ATCC 27853, 18 hours at 35° C.
Experimental: as §2

S. aureus [4] = test: MIC susceptibility testing (NCCLS, 96-well); assay type: cell-based
Experimental: as §2

S. aureus [5] = test: MIC susceptibility testing (modified NCCLS, 384-well); assay type: cell-based; conditions: Staphylococcus aureus
Experimental: The NCCLS (National Committee for Clinical Laboratory Standards), method to determine MIC's of antimicrobial compounds is modified for high-throughput screening. All stocks of tested compounds are prepared in either water or in DMSO depending on solubility. At the highest concentration, DMSO content should not exceed 0.5%. Briefly, twenty 2-fold serial dilutions of test compounds from the highest concentration are made in a 384-well microtiter plate. Each well is inoculated with testing bacteria in broth to a final concentration of approximately 1–1.5×10^6 cells/ml. Bacterial growth is determined by the increase of optical density at 600 nm using a microplate reader (Tecan SpectraFluor Plus). The MIC is defined as the lowest concentration at which bacterial growth (equivalent to visible growth) was inhibited after 16 to 18 hours of incubation at the appropriate temperature required for the bacteria growth.
Using the assay provided above, the potency of NB2046 was compared to triclosan.

purified PDF = biological target: T1, purified PDF (Escherichia coli, UniProt P0A6K3); test: Cell-free reaction catalyzed by purified PDF (HPLC, Michaelis-Menten); assay type: biochemical, E. coli; conditions: different concentrations of actinonin, FIG. 5
T1 construct: made in house; host or cells: PDF-overexpressing E. coli
T1 sequence (P0A6K3 1-169): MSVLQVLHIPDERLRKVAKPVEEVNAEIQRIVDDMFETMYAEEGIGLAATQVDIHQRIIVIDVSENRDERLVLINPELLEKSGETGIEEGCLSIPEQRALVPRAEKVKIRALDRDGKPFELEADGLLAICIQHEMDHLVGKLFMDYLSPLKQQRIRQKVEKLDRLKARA
Experimental: (§3) In a seperate experiment, cell-free reaction of PDF ECTA compounds has been studied using PDF purified from PDF-overexpressing E. coli following a procedure described in Ragusa S., et al. (2000) and Wei, et al. (2000b). NB3068 conversion was used as an example of a PDF ECTA reaction catalyzed by purified PDF. It was carried out in 50 mM HEPES buffer, pH 7.5 at room temperature. NB3068 concentrations were in the range of 2–250 μM, and the concentration of the enzyme in the reaction mixture was 25 nM. The conversion was monitored by direct injection of the reaction mixture onto an HPLC column (Adsorbosphere HS, C18, 5 μm, 4.6 mm×150 mm, Alltech). […] Kinetic parameters of the reaction were determined fitting the data to the Michaelis-Menten equation.
(§4) To confirm the role of PDF in catalyzing NB3068 transformation the rate of the reaction at different enzyme concentrations was determined (FIGS. 3 and 4). As can been seen the rate of the reaction is proportional to the enzyme concentration.

[6] = substrate: CCn1cc(C(=O)O)c(=O)c2cc(F)c(N3CCN(C(=O)OCc4ccc(OC(=O)[C@H](CC(C)C)NC(=O)[C@H](CCSC)NC=O)cc4)CC3)cc21; test: as above; assay type: biochemical, E. coli; conditions: other: PDF 25 nM, 50 mM HEPES pH 7.5, room temperature, substrate 2–250 μM
Experimental: as §3, §4

[7] = S. aureus (MS) ATCC 29213, 18 hours at 35° C.
[8] = 50 mM HEPES buffer, pH 7.5, 6 hours
[9] = 50 mM HEPES buffer, pH 7.5, read-out: t1/2 HEPES
[10] = Mueller Hinton broth, read-out: t1/2 Broth
[11] = PBS, pH 7.4, read-out: t1/2 PBS

With “1-Cyclopropyl-6-fluoro-4-oxo-7-piperazin-1-yl-1,4-dihydro-quinoline-3-carboxylic acid 4-[2-(2-formylamino-4-methylsulfanyl-butyrylamino)-4-methyl-pentanoyloxy]-benzylester [NB3057]” the “t1/2 Broth” value ([1]; buffer) was 10 h, the “percent of the compound remaining after 6 hours, PBS” value ([1]; buffer, 6 h, pH 7.4) was “(82%)” and the “t1/2 PBS” value ([1]; buffer, pH 7.4) was >12 h. The “t1/2 HEPES” value ([1]; buffer, pH 7.5) was >12 h, the “t1/2 Mouse Plasma” value [2] was 1.4 min and the “t1/2 Human Plasma” value [3] was <30 s. For the same molecule, the MIC (E. coli) was 0.0625 µg/mL, the MIC (E. faecalis) was 4 µg/mL and the MIC (P. aeruginosa) was 2 µg/mL. The MIC (S. aureus [4]; S. aureus (MR) ATCC 33591, 18 hours at 35° C.) was 0.5 µg/mL and the MIC (S. aureus [4]; [7]) was 0.125 µg/mL.

With `CSCC[C@H](NC=O)C(=O)N[C@@H](CC(C)C)C(=O)Oc1ccc(CSc2cccc[n+]2[O-])cc1` [NB3024] the “percent of the compound remaining after 6 hours, HEPES” value [1, 8] was “(88%)”, the half-life [1, 9] was > 12 h and the “percent of the compound remaining after 6 hours, Broth” value ([1]; Mueller Hinton broth, 6 hours) was “(82%)”. For the same molecule, the half-life [1, 10] was > 12 h, the “percent of the compound remaining after 6 hours, PBS” value ([1]; PBS, pH 7.4, 6 hours) was “(81%)” and the half-life [1, 11] was > 12 h. It also gave an MIC (E. coli) of 16 µg/mL (≈ 31.6 µM), an MIC (E. faecalis) of 32 µg/mL (≈ 63.3 µM) and an MIC (P. aeruginosa) of 128 µg/mL (≈ 253 µM). The MIC (S. aureus [4]; [7]) was 8 µg/mL (≈ 15.8 µM).

In the case of `CCn1cc(C(=O)O)c(=O)c2cc(F)c(N3CCN(C(=O)OCc4ccc(OC(=O)[C@H](CC(C)C)NC(=O)[C@H](CCSC)NC=O)cc4)CC3)cc21` [NB3068, 1-Ethyl-6-fluoro-7-(4-{4-[2-(2-formylamino-4-methylsulfanyl-butyrylamino)-4-methyl-pentanoyloxy]-benzyloxycarbonyl}-piperazin-1yl)-4-oxo-1,4-dihydro-qiuinoline-3-carboxylic acid], the “percent of the compound remaining after 6 hours, HEPES” value [1, 8] is reported as “(70%)”, the half-life [1, 9] is reported as > 12 h and the “percent of the compound remaining after 6 hours, Broth” value ([1]; Mueller Hinton broth, 6 hours) is reported as “(70%)”. The half-life [1, 10] was > 12 h, the “percent of the compound remaining after 6 hours, PBS” value ([1]; PBS, pH 7.4, 6 hours) was “(75%)” and the half-life [1, 11] was > 12 h. For the same molecule, the half-life ([2]; read-out: t1/2 Mouse Plasma) was 36 s, the half-life ([3]; read-out: t1/2 Human Plasma) was 4.1 min and the MIC (E. coli) was < 0.004 µg/mL. The MIC (E. faecalis) was 2 µg/mL (≈ 2.7 µM), the MIC (P. aeruginosa) was 0.5 µg/mL (≈ 0.674 µM) and the MIC (S. aureus [4]; [7]) was 2 µg/mL (≈ 2.7 µM).

In the case of `CSCC[C@H](NC=O)C(=O)N[C@@H](CC(C)C)C(=O)Oc1ccc(COC(=O)N(CCCl)CCCl)cc1` [NB3103, 2-(2-Formylamino-4-methylsulfanyl-butyrylamino)-4-methyl-pentanoic acid 4-{[bis-(2-chloro-ethyl)-carbamoyloxy]-methyl}-phenyl ester], the “percent of the compound remaining after 6 hours, HEPES” value [1, 8] is reported as “(95%)”, the half-life [1, 9] is reported as > 12 h and the “percent of the compound remaining after 6 hours, Broth” value ([1]; Mueller Hinton broth, 6 hours) is reported as “(95%)”. For the same molecule, the “percent of the compound remaining after 6 hours, PBS” value ([1]; PBS, pH 7.4, 6 hours) was “(96%)”, the half-life ([1]; buffer, Mueller Hinton broth, read-out: t1/2 Broth) was > 12 h and the half-life ([1]; buffer, PBS, pH 7.4, read-out: t1/2 PBS) was > 12 h. The MIC (E. coli) was > 128 µg/mL, the MIC (E. faecalis) was > 128 µg/mL and the MIC (P. aeruginosa) was > 128 µg/mL. The MIC (S. aureus [4]; [7]) was > 128 µg/mL.

With `Oc1cc(Cl)ccc1Oc1ccc(Cl)cc1Cl` [Triclosan, reference compound] the MIC (S. aureus [5]; ATCC 11632 / MSSA) was 0.00195 µg/mL (≈ 0.00675 µM), the MIC (S. aureus [5]; ATCC 13301 / MSSA) was 0.000488 µg/mL (≈ 0.00169 µM) and the MIC (S. aureus [5]; ATCC 14154 / MSSA) was 0.00195 µg/mL (≈ 0.00675 µM). It also gave an MIC (S. aureus [5]; ATCC 33591 / MSSA) of 0.00781 µg/mL (≈ 0.027 µM), an MIC (S. aureus [5]; ATCC 33592 / MSSA) of 0.00391 µg/mL (≈ 0.0135 µM) and an MIC (S. aureus [5]; ATCC 33593 / MSSA) of 0.000977 µg/mL (≈ 0.00337 µM). For the same molecule, the MIC (S. aureus [5]; ATCC 43300 / MSSA) was 0.00195 µg/mL (≈ 0.00675 µM), the MIC (S. aureus [5]; ATCC 700260 / MSSA) was 0.000244 µg/mL (≈ 0.000843 µM) and the MIC (S. aureus [5]; ATCC 700698 / MSSA) was 0.00391 µg/mL (≈ 0.0135 µM). For the same molecule, the MIC (S. aureus [5]; ATCC 700699 / MSSA) was ≥ 4 µg/mL, the MIC (S. aureus [5]; ATCC 700787 / MSSA) was 0.00195 µg/mL (≈ 0.00675 µM) and the MIC (S. aureus [5]; ATCC 700788 / MSSA) was 0.0312 µg/mL (≈ 0.108 µM). For the same molecule, the MIC (S. aureus [5]; ATCC 700789 / MSSA) was 0.0156 µg/mL (≈ 0.054 µM).

For `CCCCC[C@H](CC(=O)NO)C(=O)N[C@H](C(=O)N1CCC[C@H]1CO)C(C)C` [actinonin], the “Effect on NB3068 reaction catalyzed by purified PDF” value (purified PDF) was “slows down the reaction in dose dependent manner”.

B1: purified PDF (Escherichia coli K-12) (protein)
chain: T1 sequence (P0A6K3 1-169)
notes: made in house; host or cells: PDF-overexpressing E. coli
With B1 the Km [6] was 125 ± 17 µM, the kcat [6] was 2.07 ± 0.14 s⁻¹ and the kcat/Km [6] was 17000 M⁻¹ s⁻¹.
